We go through 41 compounds from US20240132464A1, “HETEROCYCLIC COMPOUNDS AS E3 LIGASE INHIBITORS” (Accutar Biotechnology Inc., priority 2022, published 2024).

SMILES strings stand for the structures.

The assay has as its target T1, GID4 (Uniprot ID: Q81VV7, residues 124-289) (Homo sapiens, UniProt Q8IVV7).
T1 construct: GID4 (Uniprot ID: Q81VV7, residues 124-289)
T1 sequence (Q8IVV7 124-289): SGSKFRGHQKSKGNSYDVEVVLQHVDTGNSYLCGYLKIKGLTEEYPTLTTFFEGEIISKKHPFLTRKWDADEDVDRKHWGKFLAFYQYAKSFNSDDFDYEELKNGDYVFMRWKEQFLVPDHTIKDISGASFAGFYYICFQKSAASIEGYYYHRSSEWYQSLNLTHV
As to the kind of experiment: GID4 competitive binding assay (AlphaScreen, GID4/degron peptide PGLW). The following applies: 24 nM GID4, 48 nM biotinylated degron peptide PGLW, 4° C., read-out: IC50 (Inhibition of GID4/Degron binding by test compounds). In outline:
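His-tagged human GID4 (residues 124-289, 24 nM) pre-incubated 2 h at 4 °C with 48 nM biotinylated PGLW peptide and compound in HEPES pH 7.5 buffer, 2% DMSO (final). AlphaScreen streptavidin donor/Ni-NTA acceptor beads added for 1 h; IC50 from nonlinear fit of % inhibition versus DMSO.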
With `CC(C)c1cc(N2CCCC(c3cnc4ccccn34)C2)nc(NCCO)n1` (centres unmarked) [Compound 127, 2-((4-(3-(imidazo[1,2-a]pyridin-3-yl)piperidin-1-yl)-6-isopropylpyrimidin-2-yl)amino)ethan-1-ol], the IC50 is more than 5 µM.
Under `CNc1nc(C(C)C)cc(N2CCCC(c3cnc4ccccn34)C2)n1` (centres unmarked) [Compound 134, 4-(3-(imidazo[1,2-a]pyridin-3-yl)piperidin-1-yl)-6-isopropyl-N-methylpyrimidin-2-amine] stands less than 0.5 µM; under `CN(C)C(=O)CCC1CCCN(c2nc(N)nc3c2CCCN3)C1` (centres unmarked) [Compound 135, 3-(1-(2-amino-5,6,7,8-tetrahydropyrido[2,3-d]pyrimidin-4-yl)piperidin-3-yl)-N,N-dimethylpropanamide], 0.5 to 5 µM.
Consider `CC(C)c1cc(N2CCNC(c3c[nH]c4ccccc34)C2)nc(N)n1` (centres unmarked) [Compound 138, 4-(3-(1H-indol-3-yl)piperazin-1-yl)-6-isopropylpyrimidin-2-amine], for which the IC50 was 0.5 to 5 µM.
The result for `Nc1nc(C2CC2)cc(N2CCCC(c3cnc4ccccn34)C2)n1` (centres unmarked) [Compound 139, 4-cyclopropyl-6-(3-(imidazo[1,2-a]pyridin-3-yl)piperidin-1-yl)pyrimidin-2-amine] reads less than 0.5 µM.
For the compound `CNC(=O)CCC1CCCN(c2nc(N)nc3c2CCCN3)C1` (centres unmarked) [Compound 140, 3-(1-(2-amino-5,6,7,8-tetrahydropyrido[2,3-d]pyrimidin-4-yl)piperidin-3-yl)-N-methylpropanamide], the IC50 lay in the range of 0.5 to 5 µM.
Under `Cc1cc(N2CCCC(c3cnc4ccccn34)C2)nc(N)n1` (centres unmarked) [Compound 147, 4-(3-(imidazo[1,2-a]pyridin-3-yl)piperidin-1-yl)-6-methylpyrimidin-2-amine] stands 0.5 to 5 µM; under `CC(C)c1cc(N2CCNC(c3csc4ccccc34)C2)nc(N)n1` (centres unmarked) [Compound 162, 4-(3-(benzo[b]thiophen-3-yl)piperazin-1-yl)-6-isopropylpyrimidin-2-amine], 0.5 to 5 µM; under `CC(C)c1cc(N2CCNC(c3cc(O)ccc3Br)C2)nc(N)n1` (centres unmarked) [Compound 163, 3-(4-(2-amino-6-isopropylpyrimidin-4-yl)piperazin-2-yl)-4-bromophenol], less than 0.5 µM.
On to `CC(C)c1cc(N2CCNC(c3ccc(O)cc3Br)C2)nc(N)n1` (centres unmarked) [Compound 164, 4-(4-(2-amino-6-isopropylpyrimidin-4-yl)piperazin-2-yl)-3-bromophenol], for which the IC50 is less than 0.5 µM.
The result for `CC(C)c1cc(N2CCNC(c3ccccc3)C2)nc(N)n1` (centres unmarked) [Compound 165, 4-isopropyl-6-(3-phenylpiperazin-1-yl)pyrimidin-2-amine] reads more than 5 µM.
In the case of `CNC(=O)c1ccc2nnc(C3CCCN(c4cc(C(C)C)nc(N)n4)C3)n2c1` (centres unmarked) [Compound 166, 3-(1-(2-amino-6-isopropylpyrimidin-4-yl)piperidin-3-yl)-N-methyl-[1,2,4]triazolo[4,3-a]pyridine-6-carboxamide], the IC50 is more than 5 µM.
Under `CNc1cc(N2CCNC(c3ccccc3Br)C2)nc(N)n1` (centres unmarked) [Compound 167] stands less than 0.5 µM; under `CCc1ccccc1C1CN(c2cc(C(C)C)nc(N)n2)CCN1` (centres unmarked) [Compound 168, 4-(3-(2-ethylphenyl)piperazin-1-yl)-6-isopropylpyrimidin-2-amine], 0.5 to 5 µM; under `CC(C)c1cc(N2CCNC(c3cccc(F)c3Br)C2)nc(N)n1` (centres unmarked) [Compound 169, 4-(3-(2-bromo-3-fluorophenyl)piperazin-1-yl)-6-isopropylpyrimidin-2-amine], less than 0.5 µM.
Under `CC(C)c1cc(N2CCNC(c3cc(F)c(F)cc3Br)C2)nc(N)n1` (centres unmarked) [Compound 170, 4-(3-(2-bromo-4,5-difluorophenyl)piperazin-1-yl)-6-isopropylpyrimidin-2-amine] stands 0.5 to 5 µM; under `COc1ccccc1C1CN(c2cc(C(C)C)nc(N)n2)CCN1` (centres unmarked) [Compound 171, 4-isopropyl-6-(3-(2-methoxyphenyl)piperazin-1-yl)pyrimidin-2-amine], 0.5 to 5 µM.
The result for `Nc1cc(N2CCNC(c3ccccc3Br)C2)nc(N)n1` (centres unmarked) [Compound 172, 6-(3-(2-bromophenyl)piperazin-1-yl)pyrimidine-2,4-diamine] reads less than 0.5 µM.
As for `CC(C)c1cc(N2CCNC(c3ccc(F)cc3Br)C2)nc(N)n1` (centres unmarked) [Compound 173, 4-(3-(2-bromo-4-fluorophenyl)piperazin-1-yl)-6-isopropylpyrimidin-2-amine], the IC50 is less than 0.5 µM.
In the case of `CC(C)c1cc(N2CCNC(c3cc(F)ccc3Br)C2)nc(N)n1` (centres unmarked) [Compound 174, 4-(3-(2-bromo-5-fluorophenyl)piperazin-1-yl)-6-isopropylpyrimidin-2-amine], the IC50 was in the range of 0.5 to 5 µM.
The result for `CC(C)c1cc(N2CCNC(c3ccccc3Cl)C2)nc(N)n1` (centres unmarked) [Compound 175, 4-(3-(2-chlorophenyl)piperazin-1-yl)-6-isopropylpyrimidin-2-amine] reads 0.5 to 5 µM.
Turning to `CC(C)c1cc(N2CCNC(c3ccccc3I)C2)nc(N)n1` (centres unmarked) [Compound 176, 4-(3-(2-iodophenyl)piperazin-1-yl)-6-isopropylpyrimidin-2-amine], the IC50 was less than 0.5 µM.
In the case of `Cc1ccccc1C1CN(c2cc(C(C)C)nc(N)n2)CCN1` (centres unmarked) [Compound 177, 4-isopropyl-6-(3-(o-tolyl)piperazin-1-yl)pyrimidin-2-amine], the IC50 is more than 5 µM.
The result for `CC(C)c1cc(N2CCCC(c3cnc4ccccn34)C2)nc(N)n1` (centres unmarked) [Compound 178, 4-(3-(imidazo[1,2-a]pyridin-3-yl)piperidin-1-yl)-6-isopropylpyrimidin-2-amine] reads less than 0.5 µM; that for `CC(C)c1cc(N(C)CCc2c[nH]c3ccccc23)nc(N)n1` [Compound 179, N4-(2-(1H-indol-3-yl)ethyl)-6-isopropyl-N4-methylpyrimidine-2,4-diamine], 0.5 to 5 µM.
Under `CNc1cc(N2CCCC(c3nnc4ccccn34)C2)nc(N)n1` (centres unmarked) [Compound 180, 6-(3-([1,2,4]triazolo[4,3-a]pyridin-3-yl)piperidin-1-yl)-N4-methylpyrimidine-2,4-diamine] stands more than 5 µM; under `CC(C)c1cc(N2CCCC(c3nc4ccccc4[nH]3)C2)nc(N)n1` (centres unmarked) [Compound 181, 4-(3-(1H-benzo[d]imidazol-2-yl)piperidin-1-yl)-6-isopropylpyrimidin-2-amine], more than 5 µM; under `CC(C)c1cc(N2CCn3cncc3C2)nc(N)n1` [Compound 182, 4-(5,6-dihydroimidazo[1,5-a]pyrazin-7(8H)-yl)-6-isopropylpyrimidin-2-amine], more than 5 µM.
In the case of `CC(C)c1cc(N2CCNC(c3ccccc3Br)C2)nc(N)n1` (centres unmarked) [Compound 183, 4-(3-(2-bromophenyl)piperazin-1-yl)-6-isopropylpyrimidin-2-amine], the IC50 is less than 0.5 µM.
For `Nc1nc2c(c(N3CCNC(c4ccccc4Br)C3)n1)COCC2` (centres unmarked) [Compound 184, 4-(3-(2-bromophenyl)piperazin-1-yl)-7,8-dihydro-5H-pyrano[4,3-d]pyrimidin-2-amine], the IC50 was in the range of 0.5 to 5 µM.
Take `Nc1nc2c(c(N3CCNC(c4nnc[nH]4)C3)n1)CSC2` (centres unmarked) [Compound 185, 4-(3-(4H-1,2,4-triazol-3-yl)piperazin-1-yl)-5,7-dihydrothieno[3,4-d]pyrimidin-2-amine]: the IC50 lay within 0.5 to 5 µM.
Under `Nc1nc2c(c(N3CCCC(c4cnc5ccccn45)C3)n1)CSC2` (centres unmarked) [Compound 186, 4-(3-(imidazo[1,2-a]pyridin-3-yl)piperidin-1-yl)-5,7-dihydrothieno[3,4-d]pyrimidin-2-amine] stands more than 5 µM; under `Nc1nc2c(c(N3CCCC(c4ccn[nH]4)C3)n1)CCCN2` (centres unmarked) [Compound 187, 4-(3-(1H-pyrazol-5-yl)piperidin-1-yl)-5,6,7,8-tetrahydropyrido[2,3-d]pyrimidin-2-amine], 0.5 to 5 µM.
Under `CC(C)c1cc(N2CCNC(c3nnc4ccccn34)C2)nc(N)n1` (centres unmarked) [Compound 188, 4-(3-([1,2,4]triazolo[4,3-a]pyridin-3-yl)piperazin-1-yl)-6-isopropylpyrimidin-2-amine] stands more than 5 µM; under `Nc1nc2c(c(N3CCNC(c4ccccc4Br)C3)n1)CSC2` (centres unmarked) [Compound 189, 4-(3-(2-bromophenyl)piperazin-1-yl)-5,7-dihydrothieno[3,4-d]pyrimidin-2-amine], more than 5 µM.
Under `CNc1nc(C)cc(Nc2cccc(-c3cnccn3)c2)n1` [Compound 190, N2,6-dimethyl-N4-(3-(pyrazin-2-yl)phenyl)pyrimidine-2,4-diamine] stands more than 5 µM; under `Nc1nc2c(c(N3CCCC(c4nnc5ccccn45)C3)n1)SCC2` (centres unmarked) [Compound 191, 4-(3-([1,2,4]triazolo[4,3-a]pyridin-3-yl)piperidin-1-yl)-6,7-dihydrothieno[3,2-d]pyrimidin-2-amine], more than 5 µM.
Consider `Nc1cc(Nc2cccc(-c3cnccn3)c2)nc(N)n1` [Compound 192, N4-(3-(pyrazin-2-yl)phenyl)pyrimidine-2,4,6-triamine], for which the IC50 was 0.5 to 5 µM.
Under `Nc1cc(N2CCCC(c3ccn[nH]3)C2)nc(N)n1` (centres unmarked) [Compound 193, 6-(3-(1H-pyrazol-5-yl)piperidin-1-yl)pyrimidine-2,4-diamine] stands more than 5 µM; under `CC(C)c1cc(N2CCCC(c3nnc4ccccn34)C2)nc(N)n1` (centres unmarked) [Compound 194, 4-(3-([1,2,4]triazolo[4,3-a]pyridin-3-yl)piperidin-1-yl)-6-isopropylpyrimidin-2-amine], 0.5 to 5 µM; under `Nc1nc2c(c(N3CCCC(c4ccn[nH]4)C3)n1)CCC2` (centres unmarked) [Compound 195, 4-(3-(1H-pyrazol-5-yl)piperidin-1-yl)-6,7-dihydro-5H-cyclopenta[d]pyrimidin-2-amine], more than 5 µM.
